From the supplement of paper PMC10307832

compound: COC1=C(C=C(C=C1)C2=CC3=NC=CN3C(=N2)NC4=C(C=CC=N4)C(=O)N)OC [BAY61-3606] + N=C(N)NC(=N)NCCc1ccccc1 [Phenformin] (partner 250 µM); experiment: relative viability (nuclei count vs DMSO), 5 days (fraction); higher = more cells survive; settings: first compound 0.02 µM
In short: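 One day after seeding in 1536-well plates, lung cancer cell lines were dosed by pin tool. Dosing was either single-drug or a fixed anchor-drug dose plus five library-drug doses (not always all listed) in √10 steps. After 5 days, nuclei were stained in one fix-and-stain step and counted on 4× images, and relative viability is the nuclei count of treated wells over that of vehicle wells, given as the median of duplicate plates.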

| Cell Line | relative viability |
| --- | --- |
| NCI-H2342 | 0.629 |
| NCI-H1623 | 0.58 |
| RERF-LC-KJ | 0.417 |
| NCI-H1651 | 0.332 |
| NCI-H1734 | 0.446 |
| NCI-H2009 | 0.524 |
| NCI-H596 | 0.803 |
| SK-LU-1 | 0.563 |
| SW 1573 | 0.288 |
| LCLC-97TM1 | 0.419 |
| NCI-H661 | 0.271 |
| NCI-H2228 | 0.37 |
| EMC-BAC-2 | 0.582 |
| NCI-H2087 | 0.432 |
| HCC-44 | 0.189 |
| NCI-H727 | 0.68 |
| LK-2 | 0.389 |

| Cell Line | relative viability |
| --- | --- |
| NCI-H2126 | 0.547 |
| NCI-H1793 | 0.363 |
| H3255 | 0.351 |
| COR-L23 | 0.474 |
| COR-L 105 | 0.494 |
| LC-2-ad | 0.613 |
| LU99A | 0.938 |
| ChaGo-K-1 | 0.513 |
| NCI-H358 | 0.371 |
| NCI-H322M | 0.824 |
| HCC-78 | 0.769 |
| A549 | 0.17 |
| NCI-H522 | 0.634 |
| LXF-289 | 0.494 |
| BEN | 0.272 |
| NCI-H1563 | 0.631 |

same assay, conditions: first compound 0.06325 µM

| Cell Line | relative viability |
| --- | --- |
| NCI-H2342 | 0.65 |
| NCI-H1623 | 0.522 |
| RERF-LC-KJ | 0.404 |
| NCI-H1651 | 0.311 |
| NCI-H1734 | 0.338 |
| NCI-H2009 | 0.38 |
| NCI-H596 | 0.806 |
| SK-LU-1 | 0.451 |
| SW 1573 | 0.336 |
| LCLC-97TM1 | 0.441 |
| NCI-H661 | 0.283 |
| NCI-H2228 | 0.294 |
| EMC-BAC-2 | 0.509 |
| NCI-H2087 | 0.463 |
| HCC-44 | 0.134 |
| NCI-H727 | 0.554 |
| LK-2 | 0.307 |

| Cell Line | relative viability |
| --- | --- |
| NCI-H2126 | 0.496 |
| NCI-H1793 | 0.216 |
| H3255 | 0.342 |
| COR-L23 | 0.438 |
| COR-L 105 | 0.506 |
| LC-2-ad | 0.539 |
| LU99A | 0.759 |
| ChaGo-K-1 | 0.451 |
| NCI-H358 | 0.32 |
| NCI-H322M | 0.71 |
| HCC-78 | 0.719 |
| A549 | 0.0908 |
| NCI-H522 | 0.624 |
| LXF-289 | 0.526 |
| BEN | 0.257 |
| NCI-H1563 | 0.59 |

same assay, conditions: first compound 0.2 µM

| Cell Line | relative viability |
| --- | --- |
| NCI-H2342 | 0.535 |
| NCI-H1623 | 0.588 |
| RERF-LC-KJ | 0.424 |
| NCI-H1651 | 0.325 |
| NCI-H1734 | 0.288 |
| NCI-H2009 | 0.469 |
| NCI-H596 | 0.793 |
| SK-LU-1 | 0.569 |
| SW 1573 | 0.342 |
| LCLC-97TM1 | 0.455 |
| NCI-H661 | 0.28 |
| NCI-H2228 | 0.368 |
| EMC-BAC-2 | 0.485 |
| NCI-H2087 | 0.44 |
| HCC-44 | 0.141 |
| NCI-H727 | 0.542 |

| Cell Line | relative viability |
| --- | --- |
| LK-2 | 0.368 |
| NCI-H2126 | 0.524 |
| H3255 | 0.371 |
| COR-L23 | 0.495 |
| COR-L 105 | 0.435 |
| LC-2-ad | 0.592 |
| LU99A | 0.735 |
| ChaGo-K-1 | 0.515 |
| NCI-H358 | 0.351 |
| NCI-H322M | 0.812 |
| HCC-78 | 0.688 |
| A549 | 0.0972 |
| NCI-H522 | 0.674 |
| LXF-289 | 0.462 |
| BEN | 0.294 |
| NCI-H1563 | 0.604 |

same assay, conditions: first compound 0.6325 µM

| Cell Line | relative viability |
| --- | --- |
| NCI-H2342 | 0.586 |
| NCI-H1623 | 0.58 |
| RERF-LC-KJ | 0.467 |
| NCI-H1651 | 0.279 |
| NCI-H1734 | 0.354 |
| NCI-H2009 | 0.524 |
| NCI-H596 | 0.793 |
| SK-LU-1 | 0.506 |
| SW 1573 | 0.328 |
| LCLC-97TM1 | 0.415 |
| NCI-H661 | 0.254 |
| NCI-H2228 | 0.276 |
| EMC-BAC-2 | 0.521 |
| NCI-H2087 | 0.411 |
| HCC-44 | 0.251 |
| NCI-H727 | 0.553 |
| LK-2 | 0.463 |

| Cell Line | relative viability |
| --- | --- |
| NCI-H2126 | 0.491 |
| NCI-H1793 | 0.41 |
| H3255 | 0.399 |
| COR-L23 | 0.466 |
| COR-L 105 | 0.413 |
| LC-2-ad | 0.6 |
| LU99A | 0.755 |
| ChaGo-K-1 | 0.462 |
| NCI-H358 | 0.244 |
| NCI-H322M | 0.773 |
| HCC-78 | 0.848 |
| A549 | 0.212 |
| NCI-H522 | 0.749 |
| LXF-289 | 0.549 |
| BEN | 0.284 |
| NCI-H1563 | 0.62 |

same assay, conditions: first compound 2 µM

| Cell Line | relative viability |
| --- | --- |
| NCI-H2342 | 0.662 |
| NCI-H1623 | 0.588 |
| RERF-LC-KJ | 0.343 |
| NCI-H1651 | 0.302 |
| NCI-H1734 | 0.244 |
| NCI-H2009 | 0.424 |
| NCI-H596 | 0.737 |
| SK-LU-1 | 0.284 |
| SW 1573 | 0.166 |
| LCLC-97TM1 | 0.451 |
| NCI-H661 | 0.248 |
| NCI-H2228 | 0.26 |
| EMC-BAC-2 | 0.444 |
| NCI-H2087 | 0.384 |
| HCC-44 | 0.182 |
| NCI-H727 | 0.541 |
| LK-2 | 0.221 |
| NCI-H2126 | 0.47 |
| NCI-H1793 | 0.271 |
| H3255 | 0.342 |
| COR-L23 | 0.352 |
| COR-L 105 | 0.323 |
| LC-2-ad | 0.563 |
| LU99A | 0.708 |
| ChaGo-K-1 | 0.52 |
| NCI-H358 | 0.158 |
| NCI-H322M | 0.626 |
| HCC-78 | 0.915 |
